Results taken from ChEMBL document CHEMBL1155668, “A new depsipeptide from the sacoglossan mollusk Elysia ornata and the green alga Bryopsis species” (J Nat Prod, 2000).
Calls of active or inactive are those of the source.

Tests used:
Format in all cases: functional, cell-based
HT-29 = assay: Growth inhibition of human HT29 cells at 10 ug/mL
A549 = assay: Growth inhibition of human A549 cells at 10 ug/mL
P388 = assay: Growth inhibition of mouse P388 cells at 10 ug/mL
MEL28 = assay: Growth inhibition of human MEL28 cells at 10 ug/mL

Measured: Activity

CC[C@H](C)[C@@H]1NC(=O)[C@H]([C@@H](C)O)NC(=O)[C@@H](Cc2c[nH]c3ccccc23)NC(=O)[C@@H](Cc2ccc(O)cc2)NC(=O)[C@@H](NC(=O)CNC(=O)CCCC(C)C)[C@@H](C)OC(=O)[C@H](C(C)C)NC1=O
inactive: all assays above
